Reference: patent US20120309699A1, “COMPOUNDS HAVING ANTI-INFLAMMATORY ACTIVITY” (Consejo Superior de Investigaciones Cientificas (CSIC), priority 2009, published 2012)

What was measured:
haptoglobin = test: Systemic inflammation marker haptoglobin (DSS model); type: in vivo, mice; details: vs DSS group; HED 10 mg
Method: (§1) A model for intestinal inflammation based on the administration of DSS (sodium dextran sulfate) to C57BL/6 mice was used. At the present time there is no consensus about which overall is the best model for experimental colitis. The DSS model has been widely used because it has clinical, morphological and analytical characteristics which up to a point are similar to those specific to patients with ulcerative colitis or Crohn's disease.
(§2) The in vivo inflammation test was carried out using duplicates separated by a number of months. In each test each group of animals (n=8) was fed a standard diet supplemented with 2.3 mg/day/kg (animal weight) of each of the compounds, depending upon the group. This dose assumes the ingestion of 0.05 mg/day (50 μg/day) per mouse (having a mean weight of 22 grams). This dose extrapolated to a human being is equivalent to 10 mg in an adult weighing 70 kg; using the formula HED (human equivalent dose)=animal dose in mg/kg×(animal weight kg/human weight in kg)^0.33.
In each test the mice were fed for 3 weeks during which 1% DSS was included in their drink. The DSS was maintained for 8 days (and the same food as from the start). Then the DSS was withdrawn and the animals were allowed to recover for another 6 days (again with the same food).
• Monitoring of weight, food and drink ingestion. The mice in all groups were individually monitored, with weight, quantity of food ingested and water drunk each day being monitored throughout the experimental test. • Blood and water in feces. The water content of feces, as an indication of diarrhea, was evaluated using the difference in weight following evaporation in a stove. Blood was measured using reactive strips based on the guaiacol-peroxidase reaction (HealthCare Diagnosis Inc.). […] The reaction was measured using a scale from 0 (negative result) to 4 (most intense color change). • Length of colon. After sacrifice the colon was obtained from each mouse, extended and measured. […] This was evaluated by spectrophotometry at 460 nm using O-dianisidine reagent and hydrogen peroxide. The change in absorbance at 460 nm was monitored over 10 minutes in a V-630 spectrophotometer (Jasco, Tokyo, Japan). MPO activity was expressed as mU of activity/mg of fresh tissue, comparing the increase in absorbance with a standard straight line obtained using leukocyte myeloperoxidase (Sigma). • Prostaglandins in colonic mucosa. Levels of PGE2 were measured in colonic mucosa homogenates using an immunoenzyme method using a Cayman Chem. kit (USA). • “Antibody array”. […] The signal was detected by chemoluminescence. […] Signal intensities (densitometry) were analyzed using ScanAlyze software. […] The changes in cytokine levels were expressed as mean±SD in arbitrary density units. […]

Prostaglandin E2 = test: Prostaglandins in colonic mucosa (DSS model); type: in vivo, mice; details: after DSS; HED 10 mg
Method: as §1
(§3) The in vivo inflammation test was carried out using duplicates separated by a number of months. In each test each group of animals (n=8) was fed a standard diet supplemented with 2.3 mg/day/kg (animal weight) of each of the compounds, depending upon the group. […]
(§4) • Monitoring of weight, food and drink ingestion. The mice in all groups were individually monitored, with weight, quantity of food ingested and water drunk each day being monitored throughout the experimental test. • Blood and water in feces. The water content of feces, as an indication of diarrhea, was evaluated using the difference in weight following evaporation in a stove. Blood was measured using reactive strips based on the guaiacol-peroxidase reaction (HealthCare Diagnosis Inc.). […] The reaction was measured using a scale from 0 (negative result) to 4 (most intense color change). • Length of colon. After sacrifice the colon was obtained from each mouse, extended and measured. […]

lactobacilli = test: Microbiota counts in feces: lactobacilli; type: in vivo, mice; details: pre-treatment, maintained after DSS; HED 10 mg
Method: as §1, §3, §4

clostridia = test: Microbiota counts in feces: clostridia; type: in vivo, mice; details: pre-treatment, maintained after DSS; HED 10 mg
Method: as §1, §3, §4

E. coli = test: Microbiota counts in feces: E. coli; type: in vivo, mice; details: after administration of DSS; HED 10 mg
Method: as §1
as §2, with “kg)^0.33. […]” for “kg)^0.33.”
• Monitoring of weight, food and drink ingestion. The mice in all groups were individually monitored, with weight, quantity of food ingested and water drunk each day being monitored throughout the experimental test. • Blood and water in feces. The water content of feces, as an indication of diarrhea, was evaluated using the difference in weight following evaporation in a stove. Blood was measured using reactive strips based on the guaiacol-peroxidase reaction (HealthCare Diagnosis Inc.). […] The reaction was measured using a scale from 0 (negative result) to 4 (most intense color change). • Length of colon. After sacrifice the colon was obtained from each mouse, extended and measured. […] This was evaluated by spectrophotometry at 460 nm using O-dianisidine reagent and hydrogen peroxide. The change in absorbance at 460 nm was monitored over 10 minutes in a V-630 spectrophotometer (Jasco, Tokyo, Japan). […] Levels of PGE2 were measured in colonic mucosa homogenates using an immunoenzyme method using a Cayman Chem. kit (USA). • “Antibody array”. […] The signal was detected by chemoluminescence. […]

Salmonella = test: Adhesion of Salmonella to Caco-2 cells; type: cell-based, human; details: Caco-2, 25 μM/well; in comparison with resveratrol and the other derivatives
Method: We used two cell models for colon cancer to evaluate the anti-adhesion capacity of compounds derived from resveratrol against pathogenic bacteria in food: Caco-2 (a model frequently used to measure the adhesion of microorganisms) and HT-29 (a model frequently used to measure immune response to infections by enteropathogens). Caco-2 and HT-29 cells were grown in EMEM and DMEM respectively, for which 24 well plates were used at 37° C., 5% CO2, 95% air until a single layer of confluent epithelium formed (cell concentration per well 2×10^5 and 6×10^5 respectively). Pathogenic bacteria (E. coli O157, Salmonella and Listeria monocytogenes Scott A) were placed in contact with the various compounds derived from resveratrol for 1 hour and subsequently the bacteria together with the different compounds in a concentration of 25 μM/well were inoculated on the cell cultures, incubating the plates for 2 hours at 37° C., 5% CO2, 95% air. The plates were then washed 3 times with 1 ml of sterile PBS and 1 ml of distilled water with 20% of glycerol was added, and they were frozen at −70° C. to lyse the epithelial cells. […] Concentrations of the various derivatives tested were detected in the digestive tracts of experimental animals and therefore the test lay within the range of physiologically achievable concentrations.

interleukin-8 (IL-8) = test: Production of interleukin-8 in HT-29 cells inoculated with Listeria monocytogenes Scott A; type: cell-based, human; details: HT-29, Listeria monocytogenes Scott A; for Modulation of IL-8 production at increased dose: 50 and 100 μM; for Production of IL-8: 6 hours
Method: The human colon carcinoma cell HT-29 model was used to evaluate the ability of the compounds derived from resveratrol to modulate the production of interleukin-8 as a response to pathogenic food bacteria. […] Cell viability was observed under the microscope and the supernatants from the wells were recovered. After centrifuging (10,000 rpm/10 min) and filtering the supernatants (0.22), IL-8 was determined using the ELISA method (Human Elisa IL-8 diaclone). The concentrations of the various derivatives tested were detected in the digestive tract of experimental animals and therefore the test fell within the range of physiological achievable concentrations.

Compound | Blood haptoglobin levels (haptoglobin) | Production of prostaglandins (PGE2) in colonic mucosa (Prostaglandin E2) | Population of lactobacilli in feces (lactobacilli) | Population of clostridia in feces (clostridia) | E. coli count in feces (E. coli) | Anti-adhesion efficacy in respect of Salmonella (Salmonella) | Modulation of IL-8 production at increased dose (interleukin-8 (IL-8)) | Production of IL-8 (interleukin-8 (IL-8))
CCCC(=O)OCC1OC(Oc2cc(O)cc(/C=C/c3ccc(O)cc3)c2)C(O)C(O)C1O [BUT, trans-resveratrol-3-O-(6′-O-butanoyl)-β-D-glucopyranoside] | most notable differences | best results | increases the population | increases the population | clear reduction | greater anti-adhesion efficacy | more obvious | reduced production significantly
CCCCCCCC(=O)OCC1OC(Oc2cc(O)cc(/C=C/c3ccc(O)cc3)c2)C(O)C(O)C1O [OCT, trans-resveratrol-3-O-(6′-O-octanoyl)-β-D-glucopyranoside] | most notable differences | best results | increases the population | increases the population | clear reduction | greater anti-adhesion efficacy | more obvious | reduced production significantly
